These results are taken from US12240844B2 (Voronoi, Inc., priority 2019, dated 2025).

pIC50: −log10 of the molar value.

What all share (type): biochemical
Assay [1] has as its target T1, human GST-DYRK1A (full length) (Homo sapiens, UniProt Q13627).
T1 construct: purified human GST-DYRK1A (full length, Thermo scientifics) enzyme; GST; purchased Thermo scientifics
As to the kind of experiment: GST-DYRK1A enzyme inhibition, ADP-Glo kinase assay. The following applies: read-out: DYRK1 IC50. Put shortly:
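Full-length human GST-DYRK1A (10 ng) incubated with 10 uM ATP and specific substrate for 1 h at 25° C in 40 mM Tris-HCl pH 7.4, 20 mM MgCl2, 0.5 mg/mL BSA, 50 uM DTT. ADP formation read by ADP-Glo luminescence; IC50 (nM) versus solvent control, triplicate.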

The target in the next assay is T2, human GST-CLK1 (129-end) (Homo sapiens, UniProt P49759).
T2 construct: purified human GST-CLK1 (129-end, Signalchem) enzyme; GST; purchased Signalchem
As to the kind of experiment: GST-CLK1 enzyme inhibition, ADP-Glo kinase assay. The following applies: ATP 10 uM. The method, boiled down:
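GST-CLK1 (129-end, 3 ng) reacted with 10 uM ATP and substrate in 40 mM Tris-HCl pH 7.4, 20 mM MgCl2, 0.5 mg/mL BSA, 50 uM DTT, 1 h at 25° C. ADP-Glo luminescence normalised to solvent control; IC50 from triplicate data.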
For orientation: ADP-Glo first removes unused ATP, then detects ADP through luciferase.

The target of a further assay is LRRK2 (Homo sapiens, UniProt Q5S007). Description: LRRK2 enzyme inhibition, ADP-Glo kinase assay. Set-up: purchased Invitrogen PR8604B. The procedure: In order to evaluate the inhibitory activity of the compounds according to the present invention on LRRK2, LRRK2 (G2019S), DYRK1, CLK1 and TTK kinases, the following experiment was performed.
Example compounds were reacted with the purified human LRRK2 (Invitrogen #PR8604B) enzyme to evaluate the enzyme inhibitory ability as follows. The reaction buffer was used as the composition of 40 mM Tris-HCl pH7.4, 20 mM MgCl2, 0.5 mg/ml BSA and 50 μM DTT, and the reaction of all test materials was performed on the reaction buffer. The compound was diluted with 10 mM DMSO stock in 12 steps by a serial dilution method, and the enzyme activity was measured at the final compound concentrations of 50, 10, 2, 0.4, 0.08, 0.016, 0.0032, 0.00064, 0.000128, 0.0000256, 0.00000512 and 0.000001024 μM. In the test, the human LRRK2 (25 ng) enzyme was reacted with the purified ATP (10 μM) and an enzyme substrate ([…]) at 25° C. for 2 hours, and then the enzyme activity was identified using the in vitro ADP-Glo™ kinase assay (promega). The enzyme activity reaction liquid, an ADP-Glo reaction liquid and an enzyme potency detection solution were reacted in a ratio of 2:2:1, and the degree of inhibition of enzyme activity was measured by Luminescence. The degree of inhibition of enzyme activity according to the treatment concentrations of the respective compounds was calculated based on the fluorescence of the enzyme activity of a solvent control group that was not treated with the compound, where the concentration of each compound to inhibit enzyme activity inhibition by 50% was determined as an IC50 (nM) value and obtained using Prism (Version 5.01, GraphPad) software.
In the table below, the following designations were used for the evaluation of enzyme inhibitory ability.

In another assay the target is LRRK2 (G2019S) (Homo sapiens, UniProt Q5S007, G2019S). As to the kind of experiment: LRRK2 G2019S enzyme inhibition, ADP-Glo kinase assay. Set-up: purchased SignalChem L10-12GG. The method, boiled down: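 Purified human LRRK2 G2019S (16 ng) with 25 μM ATP and 0.2 μg substrate, 2 h at 25° C in 40 mM Tris-HCl pH 7.4, 20 mM MgCl2, 0.5 mg/ml BSA, 50 μM DTT; compound at 12 final concentrations from 50 μM downward. ADP-Glo luminescence versus solvent control gave IC50 (nM).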
Sequence of LRRK2 (G2019S) (Q5S007 970-2527 G2019S limits assumed): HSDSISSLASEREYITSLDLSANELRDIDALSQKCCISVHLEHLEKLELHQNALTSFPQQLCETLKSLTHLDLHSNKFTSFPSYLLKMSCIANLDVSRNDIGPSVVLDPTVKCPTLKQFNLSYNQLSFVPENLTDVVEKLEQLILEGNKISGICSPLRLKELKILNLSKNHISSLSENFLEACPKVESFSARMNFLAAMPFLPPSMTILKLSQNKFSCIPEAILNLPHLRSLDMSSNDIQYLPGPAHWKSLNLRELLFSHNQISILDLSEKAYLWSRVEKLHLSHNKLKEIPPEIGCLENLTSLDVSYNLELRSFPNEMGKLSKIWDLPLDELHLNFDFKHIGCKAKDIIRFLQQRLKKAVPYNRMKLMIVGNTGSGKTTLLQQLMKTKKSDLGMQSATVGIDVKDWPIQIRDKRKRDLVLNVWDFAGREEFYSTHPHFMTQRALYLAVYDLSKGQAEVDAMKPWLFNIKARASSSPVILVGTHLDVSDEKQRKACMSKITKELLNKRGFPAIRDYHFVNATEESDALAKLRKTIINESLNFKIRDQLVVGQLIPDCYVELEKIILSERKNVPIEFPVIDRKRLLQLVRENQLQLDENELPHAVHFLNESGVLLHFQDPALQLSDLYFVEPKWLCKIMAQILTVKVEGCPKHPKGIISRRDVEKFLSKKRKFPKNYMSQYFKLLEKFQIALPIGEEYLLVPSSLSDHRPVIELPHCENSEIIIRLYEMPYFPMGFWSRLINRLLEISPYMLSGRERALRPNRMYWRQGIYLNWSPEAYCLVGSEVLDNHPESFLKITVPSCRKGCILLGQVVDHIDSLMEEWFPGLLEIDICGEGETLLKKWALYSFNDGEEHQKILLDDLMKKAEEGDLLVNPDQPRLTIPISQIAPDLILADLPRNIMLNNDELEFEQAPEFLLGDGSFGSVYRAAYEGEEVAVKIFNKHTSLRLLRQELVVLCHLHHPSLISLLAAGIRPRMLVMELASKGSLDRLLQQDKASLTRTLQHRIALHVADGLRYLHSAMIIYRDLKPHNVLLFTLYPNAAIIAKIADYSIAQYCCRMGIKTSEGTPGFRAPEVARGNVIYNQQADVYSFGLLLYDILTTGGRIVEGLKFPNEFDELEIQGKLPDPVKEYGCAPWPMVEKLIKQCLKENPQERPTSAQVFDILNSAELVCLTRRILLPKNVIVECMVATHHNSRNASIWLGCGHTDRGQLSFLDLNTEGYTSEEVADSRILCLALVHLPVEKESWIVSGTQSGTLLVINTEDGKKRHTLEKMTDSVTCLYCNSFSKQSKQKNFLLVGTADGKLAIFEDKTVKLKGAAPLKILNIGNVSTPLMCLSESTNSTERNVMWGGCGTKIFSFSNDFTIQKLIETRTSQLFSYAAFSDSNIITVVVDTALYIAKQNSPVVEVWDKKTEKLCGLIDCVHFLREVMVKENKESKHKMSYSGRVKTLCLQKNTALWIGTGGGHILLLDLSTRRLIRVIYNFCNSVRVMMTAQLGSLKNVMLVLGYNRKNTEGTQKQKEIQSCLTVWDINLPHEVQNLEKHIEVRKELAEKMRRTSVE

T2 sequence (P49759 129-484 limits assumed): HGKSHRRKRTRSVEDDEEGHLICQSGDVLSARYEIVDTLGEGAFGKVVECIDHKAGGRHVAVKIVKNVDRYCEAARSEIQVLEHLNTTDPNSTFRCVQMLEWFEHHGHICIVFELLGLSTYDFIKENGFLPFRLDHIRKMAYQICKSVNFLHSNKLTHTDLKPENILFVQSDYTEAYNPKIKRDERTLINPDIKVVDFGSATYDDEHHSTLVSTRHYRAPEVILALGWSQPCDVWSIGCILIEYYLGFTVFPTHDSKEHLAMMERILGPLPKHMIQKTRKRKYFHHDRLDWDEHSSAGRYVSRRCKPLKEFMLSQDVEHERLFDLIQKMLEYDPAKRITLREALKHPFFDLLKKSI
Sequence of LRRK2 (Q5S007 970-2527 limits assumed): as the sequence (Q5S007 970-2527 G2019S limits assumed) above, with S1050G counted along it

In general, pIC50 refers to −log10 of the IC50, conventionally taken in molar units. As to `COc1cc(S(C)(=O)=O)ccc1Nc1cc(NCCS(C)(=O)=O)c2c(C(F)(F)F)c[nH]c2n1` [Example 193, N^6-(2-methoxy-4-(methylsulfonyl)phenyl)-N^4-(2-(methylsulfonyl)ethyl)-3-(trifluoromethyl)-1H-pyrrolo[2,3-b]pyridine-4,6-diamine], the pIC50 in assay [1] was > 7.00; against human GST-CLK1 (129-end), > 7.00; on LRRK2 it was 6.00 to 6.52; at LRRK2 (G2019S) it was 6.00 to 6.52.
For `COc1cc(S(C)(=O)=O)ccc1Nc1cc(NC2CCCCC2)c2c(C(F)(F)F)c[nH]c2n1` [Example 182, N^4-cyclohexyl-N^6-(2-methoxy-4-(methylsulfonyl)phenyl)-3-(trifluoromethyl)-1H-pyrrolo[2,3-b]pyridine-4,6-diamine], the negative logarithm of the IC50 (pIC50) (in assay [1]; at human GST-CLK1 (129-end); on LRRK2; on LRRK2 (G2019S)) was 6.00 to 6.52 in each case.
For the molecule `O=C(c1ccc(Nc2cc(NC3CCCCC3)c3c(C(F)(F)F)c[nH]c3n2)c2c1OCCO2)N1CCOCC1` [Example 154, (8-((4-(cyclohexylamino)-3-(trifluoromethyl)-1H-pyrrolo[2,3-b]pyridin-6-yl)amino)-2,3-dihydrobenzo[b] [1,4]dioxin-5-yl)(morpholino) methanone], the negative logarithm of the IC50 (pIC50) (in assay [1]; at human GST-CLK1 (129-end); at LRRK2; against LRRK2 (G2019S)) was 6.00 to 6.52 throughout.
Take `COCCNc1cc(Nc2ccc(C(=O)N3CCOCC3)c3c2OCCO3)nc2[nH]cc(C(F)(F)F)c12` [Example 158, (8-((4-((2-methoxyethyl)amino)-3-(trifluoromethyl)-1H-pyrrolo[2,3-b]pyridin-6-yl)amino)-2,3-dihydrobenzo[b] [1,4]dioxin-5-yl)(morpholino) methanone]: the pIC50 (in assay [1]; at human GST-CLK1 (129-end); on LRRK2; against LRRK2 (G2019S)) was > 7.00 throughout.
Take `COCCNc1cc(Nc2ccc(S(C)(=O)=O)cc2OC)nc2[nH]cc(C#N)c12` [Example 126, 6-((2-methoxy-4-(methylsulfonyl)phenyl)amino)-4-((2-methoxyethyl)amino)-1H-pyrrolo[2,3-b]pyridine-3-carbonitrile]: the pIC50 in assay [1] was 6.00 to 6.52; on human GST-CLK1 (129-end), 6.00 to 6.52; against LRRK2 it was > 7.00; at LRRK2 (G2019S) it was > 7.00.
With `CNc1cc(Nc2ccc(S(=O)(=O)N3CCOCC3)cc2OC)nc2[nH]cc(C(F)(F)F)c12` [Example 177, N^6-(2-methoxy-4-(morpholinosulfonyl)phenyl)-N^4-methyl-3-(trifluoromethyl)-1H-pyrrolo[2,3-b]pyridine-4,6-diamine], the pIC50 (in assay [1]; against human GST-CLK1 (129-end); against LRRK2; on LRRK2 (G2019S)) was 6.00 to 6.52 in each case.
Regarding `CCNc1cc(Nc2ccc(C(=O)N3CCOCC3)c3c2OCCO3)nc2[nH]cc(C#N)c12` [Example 107, 4-(ethylamino)-6-((8-(morpholine-4-carbonyl)-2,3-dihydrobenzo[b] [1,4]dioxin-5-yl)amino)-1H-pyrrolo[2,3-b]pyridine-3-carbonitrile], the pIC50 in assay [1] is 6.00 to 6.52; on human GST-CLK1 (129-end) it was 6.00 to 6.52; at LRRK2, > 7.00; against LRRK2 (G2019S) it was > 7.00.
For the molecule `CCNc1cc(Nc2ccc(S(C)(=O)=O)cc2OC)nc2[nH]cc(C#N)c12` [Example 124, 4-(ethylamino)-6-((2-methoxy-4-(methylsulfonyl)phenyl)amino)-1H-pyrrolo[2,3-b]pyridine-3-carbonitrile], the pIC50 in assay [1] is 6.00 to 6.52; against human GST-CLK1 (129-end) it was 6.00 to 6.52; against LRRK2, > 7.00; against LRRK2 (G2019S), 6.52 to 7.00.
With `COc1cc(S(C)(=O)=O)ccc1Nc1cc(NC2CC2)c2c(C#N)c[nH]c2n1` [Example 122, 4-(cyclopropylamino)-6-((2-methoxy-4-(methylsulfonyl)phenyl)amino)-1H-pyrrolo[2,3-b]pyridine-3-carbonitrile], the pIC50 in assay [1] was 6.00 to 6.52; against human GST-CLK1 (129-end) it was 6.00 to 6.52; against LRRK2 it was > 7.00; against LRRK2 (G2019S), 6.52 to 7.00.
As for `CCNc1cc(Nc2ccc(C(=O)N3CCC(N4CCOCC4)CC3)c3c2OCCO3)nc2[nH]cc(C(F)(F)F)c12` [Example 161, (8-((4-(ethylamino)-3-(trifluoromethyl)-1H-pyrrolo[2,3-b]pyridin-6-yl)amino)-2,3-dihydrobenzo[b] [1,4]dioxin-5-yl)(4-morpholinopiperidin-1-yl)methanone], the pIC50 is 6.52 to 7.00 in assay [1], > 7.00 against human GST-CLK1 (129-end), > 7.00 against LRRK2 and > 7.00 on LRRK2 (G2019S).
Consider `CNc1cc(Nc2ccc(S(C)(=O)=O)cc2OC)nc2[nH]cc(C(F)(F)F)c12` [Example 178, N^6-(2-methoxy-4-(methylsulfonyl)phenyl)-N^4-methyl-3-(trifluoromethyl)-1H-pyrrolo[2,3-b]pyridine-4,6-diamine], for which the pIC50 in assay [1] was > 7.00; against human GST-CLK1 (129-end), 6.00 to 6.52; against LRRK2 it was 6.00 to 6.52; at LRRK2 (G2019S), 6.00 to 6.52.
`O=C(c1ccc(Nc2cc(NC3CC3)c3c(C(F)(F)F)c[nH]c3n2)c2c1CCO2)N1CCOCC1` [Example 53, (7-((4-(cyclopropylamino)-3-(trifluoromethyl)-1H-pyrrolo[2,3-b]pyridin-6-yl)amino)-2,3-dihydrobenzofuran-4-yl)(morpholino) methanone]: the negative-log IC50 (pIC50) (in assay [1]; against human GST-CLK1 (129-end); at LRRK2; on LRRK2 (G2019S)) was > 7.00 in each case.
On to `COc1cc(S(C)(=O)=O)ccc1Nc1cc(NC2CCC2)c2c(C#N)c[nH]c2n1` [Example 120, 4-(cyclobutylamino)-6-((2-methoxy-4-(methylsulfonyl)phenyl)amino)-1H-pyrrolo[2,3-b]pyridine-3-carbonitrile], for which the negative logarithm of the IC50 (pIC50) was 6.00 to 6.52 in assay [1], 6.00 to 6.52 against human GST-CLK1 (129-end), > 7.00 against LRRK2 and 6.52 to 7.00 against LRRK2 (G2019S).
As to `CCNc1cc(Nc2ccc(P(C)(C)=O)cc2OC)nc2[nH]cc(C(F)(F)F)c12` [Example 209, (4-((4-(ethylamino)-3-(trifluoromethyl)-1H-pyrrolo[2,3-b]pyridin-6-yl)amino)-3-methoxyphenyl) dimethylphosphine oxide], the pIC50 was 6.52 to 7.00 in assay [1], 6.00 to 6.52 against human GST-CLK1 (129-end), > 7.00 at LRRK2 and > 7.00 against LRRK2 (G2019S).
As for `CNc1cc(Nc2ccc(C(=O)N3CCC(N4CCOCC4)CC3)c3c2OCCO3)nc2[nH]cc(C#N)c12` [Example 115, 4-(methylamino)-6-((8-(4-morpholinopiperidine-1-carbonyl)-2,3-dihydrobenzo[b] [1,4]dioxin-5-yl)amino)-1H-pyrrolo[2,3-b]pyridine-3-carbonitrile], the pIC50 in assay [1] was 6.52 to 7.00; against human GST-CLK1 (129-end) it was 6.52 to 7.00; at LRRK2 it was > 7.00; at LRRK2 (G2019S) it was > 7.00.
In the case of `CNc1cc(Nc2ccc(C(=O)N3CCOCC3)c3c2OCC3)nc2[nH]cc(C(F)(F)F)c12` [Example 52, (7-((4-(methylamino)-3-(trifluoromethyl)-1H-pyrrolo[2,3-b]pyridin-6-yl)amino)-2,3-dihydrobenzofuran-4-yl)(morpholino) methanone], the pIC50 (in assay [1]; against human GST-CLK1 (129-end); at LRRK2; at LRRK2 (G2019S)) was > 7.00 in each case.
On to `CCCNc1cc(Nc2ccc(S(C)(=O)=O)cc2OC)nc2[nH]ccc12` [Example 27, N^6-(2-methoxy-4-(methylsulfonyl)phenyl)-N^4-propyl-1H-pyrrolo[2,3-b]pyridine-4,6-diamine], for which the negative logarithm of the IC50 (pIC50) in assay [1] was 6.00 to 6.52; at human GST-CLK1 (129-end), 6.00 to 6.52; against LRRK2 it was > 7.00; at LRRK2 (G2019S), > 7.00.
